Eleven molecules from ChEMBL document CHEMBL1201862, “PubChem BioAssay data set” (2004) can be followed below.

Among the test systems are A549; ACHN; CAKI-1; DU-145; HL-60; IGROV-1; MCF7; MDA-MB-435; MDA-N; NCI-H226; NCI-H23; NCI-H522; PC-3; SK-MEL-28; SK-OV-3; SR; T47D; U-251; SF-539.
Holding throughout (test): NCI-60 cell line screen, 48 h

Structures are written as SMILES.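 Grown in 96-well plates, cells were treated for 48 hours with each compound at five concentrations. Insufficient inhibition: endpoint recorded as highest concentration tested. GI50: concentration for 50% inhibition of growth.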 Activity calls are given as the source filed them. Rule as the data show it: active = GI50 up to about 1.1 µM and inactive = higher. Bounds are passed on as bounds.

On to `O=[N+]([O-])c1cc(-[n+]2cc([O-])on2)ccc1Cl`, for which the GI50 in the assay with A549 was 31 µM (inactive); with ACHN, 16 µM (inactive); in the assay on CAKI-1, 2.44 µM (inactive); with DU-145, 16.9 µM (inactive); in the assay with HL-60, 35 µM (inactive); in the assay on IGROV-1, 24.3 µM (inactive). Besides, the GI50 is 19.4 µM (inactive) with MCF7; 27.6 µM (inactive) with MDA-MB-435; 14.9 µM (inactive) with MDA-N; 83.8 µM (inactive) with NCI-H226; 13.7 µM (inactive) in the assay with NCI-H23; 17.8 µM (inactive) in the assay with NCI-H522. The GI50 is > 100 µM (inactive) in the assay on PC-3; 16.1 µM (inactive) with SK-MEL-28; 33.5 µM (inactive) with SK-OV-3; 29.9 µM (inactive) in the assay on SR; 16.4 µM (inactive) in the assay on T47D; 17 µM (inactive) in the assay with U-251.
Turning to `CN(Cc1cnc2nc(N)nc(N)c2n1)c1ccc(C(=O)NC(CO)CCCO)cc1` (stereo unspecified), the GI50 with ACHN, in the assay on CAKI-1, in the assay with DU-145, in the assay on HL-60, in the assay with IGROV-1 and in the assay with MCF7 was > 100 µM (inactive) each time. Also, the GI50 with MDA-MB-435, in the assay on MDA-N, in the assay with NCI-H226, in the assay on NCI-H23, with PC-3 and in the assay with SF-539 was > 100 µM (inactive) throughout. For the same molecule, the GI50 in the assay with SK-MEL-28, in the assay on SK-OV-3, in the assay on SR, in the assay on T47D and in the assay with U-251 was > 100 µM (inactive) throughout.
For the molecule `O=S1(=O)c2ccccc2NC(=S)CC1c1ccccc1` (stereo unspecified), the GI50 in the assay on A549, in the assay on ACHN, with CAKI-1, in the assay with DU-145, with HL-60 and in the assay on IGROV-1 was > 100 µM (inactive) in each case. The GI50 in the assay with MCF7, in the assay on MDA-MB-435, in the assay with MDA-N, with NCI-H226, in the assay on NCI-H23 and in the assay with NCI-H522 was > 100 µM (inactive) each time. Also, the GI50 in the assay on PC-3, in the assay with SK-MEL-28, in the assay on SK-OV-3, with SR, in the assay on T47D and in the assay with U-251 was > 100 µM (inactive) each time.
Turning to `CCOC(=O)c1cc(Br)c(-c2onc(C)c2Br)[nH]1`, the GI50 in the assay on A549 is 56.1 µM (inactive); in the assay with CAKI-1, 45.7 µM (inactive); with DU-145, > 100 µM (inactive); with HL-60, > 100 µM (inactive); in the assay with IGROV-1 it was 40.2 µM (inactive); with MCF7, > 100 µM (inactive). Besides, the GI50 in the assay with MDA-MB-435 was > 100 µM (inactive); in the assay with MDA-N, > 100 µM (inactive); in the assay with NCI-H226, 30.1 µM (inactive); in the assay with NCI-H23, 49.3 µM (inactive); in the assay with PC-3, > 100 µM (inactive); in the assay on SF-539 it was 31.6 µM (inactive). Further, the GI50 in the assay with SK-MEL-28 is > 100 µM (inactive); with SK-OV-3, 25.9 µM (inactive); in the assay with SR, > 100 µM (inactive); in the assay with T47D, > 100 µM (inactive); with U-251, 19.1 µM (inactive).
Consider `CCOC(=O)/C=C1\Nc2ccccc2C12CCc1c([nH]c3ccccc13)C2C(=O)OCC` (stereo unspecified), for which the GI50 with A549 was 29.7 µM (inactive); in the assay with ACHN, 49.2 µM (inactive); in the assay with CAKI-1 it was 11.7 µM (inactive); in the assay on DU-145, 98.2 µM (inactive); in the assay on HL-60, 26.1 µM (inactive); in the assay with IGROV-1, 8.59 µM (inactive). The GI50 in the assay with MCF7 is 17.5 µM (inactive); in the assay on MDA-MB-435 it was 6.27 µM (inactive); in the assay with MDA-N it was 7.85 µM (inactive); in the assay with NCI-H23 it was 43.5 µM (inactive); in the assay on NCI-H522, 21.5 µM (inactive); in the assay with PC-3 it was > 100 µM (inactive). In addition, the GI50 in the assay with SF-539 is 71.8 µM (inactive); with SK-MEL-28, 61.2 µM (inactive); with SK-OV-3, 30.2 µM (inactive); in the assay on SR it was 25.8 µM (inactive); with T47D, 61.2 µM (inactive); in the assay on U-251, > 100 µM (inactive).
Regarding `COc1cc(COC(=O)N2CCC2C(=O)O)c([N+](=O)[O-])cc1OC` (stereo unspecified), the GI50 with A549, in the assay on ACHN, in the assay on DU-145, in the assay with HL-60, in the assay with IGROV-1 and with MCF7 was > 100 µM (inactive) each time. Moreover, the GI50 with MDA-MB-435, in the assay with MDA-N, in the assay on NCI-H226, in the assay with NCI-H23, in the assay on PC-3 and with SF-539 was > 100 µM (inactive) throughout. Also, the GI50 in the assay with SK-MEL-28, with SK-OV-3, in the assay with SR, with T47D and with U-251 was > 100 µM (inactive) in each case.
For `CN(C(=O)[C@H](NC(=O)OCc1ccccc1)c1ccccc1)C1CCCCC1N1CCCC1` (stereo partly specified), the GI50 with A549 is > 100 µM (inactive); in the assay on ACHN, > 100 µM (inactive); in the assay on CAKI-1, > 100 µM (inactive); in the assay with DU-145, > 100 µM (inactive); in the assay on IGROV-1 it was 70.3 µM (inactive); in the assay with MCF7, 98.2 µM (inactive). Moreover, the GI50 in the assay with MDA-MB-435 is 70.8 µM (inactive); in the assay with MDA-N it was > 100 µM (inactive); in the assay with NCI-H226, 0.55 µM (active); with NCI-H23 it was > 100 µM (inactive); with NCI-H522 it was 43.9 µM (inactive); in the assay with PC-3, 69.7 µM (inactive). In addition, the GI50 in the assay with SK-MEL-28 was > 100 µM (inactive); in the assay on SK-OV-3, > 100 µM (inactive); in the assay on SR it was 20.7 µM (inactive); in the assay on T47D, > 100 µM (inactive); with U-251, > 100 µM (inactive).
On to `c1ccc2c(-c3ccnc(-c4c[nH]c5ccccc45)n3)c[nH]c2c1`, for which the GI50 in the assay on A549 is 3.27 µM (inactive); in the assay on ACHN, 3.13 µM (inactive); in the assay on CAKI-1, 4.25 µM (inactive); in the assay with DU-145, 12.4 µM (inactive); with HL-60, 2.29 µM (inactive); in the assay with IGROV-1 it was < 0.01 µM (active). The GI50 with MCF7 was 2.74 µM (inactive); with MDA-MB-435 it was 4.52 µM (inactive); in the assay with MDA-N, 2.78 µM (inactive); with PC-3, 2.72 µM (inactive); with SF-539 it was 4.37 µM (inactive); with SK-MEL-28, 6.9 µM (inactive). For the same molecule, the GI50 with SK-OV-3 is 10.7 µM (inactive); with SR, 4.25 µM (inactive); in the assay with T47D it was 3.85 µM (inactive); in the assay on U-251 it was 3.86 µM (inactive).
On to `O=C(O)/C(Cc1ccc([N+](=O)[O-])cc1)=N\O`, for which the GI50 with A549 is > 100 µM (inactive); in the assay on ACHN, > 100 µM (inactive); in the assay with CAKI-1 it was > 100 µM (inactive); with DU-145, > 100 µM (inactive); in the assay with HL-60 it was 61.9 µM (inactive); in the assay with IGROV-1 it was 69.8 µM (inactive). In addition, the GI50 with MCF7 is > 100 µM (inactive); in the assay on MDA-MB-435 it was > 100 µM (inactive); in the assay on MDA-N it was > 100 µM (inactive); in the assay with NCI-H226, > 100 µM (inactive); with NCI-H23, > 100 µM (inactive); in the assay with NCI-H522 it was 29.6 µM (inactive). Besides, the GI50 in the assay on PC-3 is > 100 µM (inactive); with SF-539, > 100 µM (inactive); with SK-MEL-28 it was > 100 µM (inactive); with SK-OV-3 it was > 100 µM (inactive); with T47D, 94.6 µM (inactive); with U-251, > 100 µM (inactive).
Turning to `COc1cc(C(c2ccc3c(c2)OCO3)C2SCCCS2)cc(OC)c1OC` (stereo unspecified), the GI50 with A549 was 4.22 µM (inactive); in the assay with ACHN it was 5.52 µM (inactive); in the assay on CAKI-1, 2.67 µM (inactive); with DU-145, 3.03 µM (inactive); with IGROV-1, 2.49 µM (inactive); with MCF7, 2.62 µM (inactive). Further, the GI50 with MDA-MB-435 is 0.661 µM (active); in the assay on MDA-N, 0.372 µM (active); in the assay on NCI-H226, 2.7 µM (inactive); in the assay with NCI-H23, 3.76 µM (inactive); in the assay on NCI-H522, 2.11 µM (inactive); in the assay with PC-3 it was 3.6 µM (inactive). The GI50 in the assay with SK-MEL-28 is 4.91 µM (inactive); with SK-OV-3, 2.81 µM (inactive); with SR it was 0.332 µM (active); in the assay on T47D, 3.56 µM (inactive); in the assay on U-251 it was 3.01 µM (inactive).
Turning to `C=CCOCn1cnc2c(=O)[nH]c(N)nc21`, the GI50 with A549, in the assay on ACHN, in the assay with CAKI-1, with DU-145, in the assay on HL-60 and in the assay with IGROV-1 was > 100 µM (inactive) throughout. In addition, the GI50 with MCF7, in the assay on MDA-MB-435, in the assay with MDA-N, in the assay with NCI-H226, in the assay with NCI-H23 and in the assay on PC-3 was > 100 µM (inactive) throughout. In addition, the GI50 in the assay with SF-539, in the assay on SK-MEL-28, in the assay with SK-OV-3, in the assay on SR, in the assay with T47D and with U-251 was > 100 µM (inactive) each time.
